Assay results reported in patent US11007169B2, “Cis-gnetin H and trans-gnetin H as therapeutic agents” (MIDDLE TENNESSEE STATE UNIVERSITY, priority 2014, dated 2021).

Experiments:
[1] = system: phosphorylated IKK α/β (Ser176/180) in LPS-stimulated THP-1 cells; test: Western blot, IKK β phosphorylation; format: cell-based, human
Description: (§1) THP-1 cells were maintained in RPMI 1640 medium supplemented with 10% complement-inactivated FBS and 1% penicillin/streptomycin (complete culture medium) at 37° C. with 5% CO2 supplemented. Cell concentrations were adjusted to desired concentrations for each experiment by centrifugation at 500×g for 5 min and resuspended in complete culture medium with 100 nM of PMA. Cell concentration was adjusted to 5×10^5 cells/ml for all assays and 2.5×10^5 cells/ml were used for NF-κB nuclear translocation assay. Cells were seeded onto 96-, 24-, or 12-well plates and incubated for 48 to 72 h to allow for differentiation. Cells were washed with serum-free RPMI 1640 medium before each experiment to remove the undifferentiated cells.
(§2) Differentiated THP-1 cells were pretreated with various concentrations of cis-gnetin H, trans-gnetin H, or 10 μM of Bay 11-7082 for 1 h and stimulated with 1 μg/ml of LPS for 15 min. Cells were lysed with radio-immunoprecipitation assay (RIPA; 1% Triton X-100, 0.5% Sodium deoxycholate, 0.1% sodium dodecyl sulfate, 150 mM sodium chloride, and 50 mM Tris-chloride) lysis buffer that contained protease and phosphatase inhibitor cocktail. Cell lysates were then tested for protein concentration using a BCA protein assay, and diluted with RIPA lysis buffer to normalize protein concentration in all samples. […]

[2] = system: BT20 cells; test: Apoptosis assay by flow cytometry, BT20; format: cell-based, human; settings: 100 μM, 24 hours
Description: A549 and BT20 cells were seeded in a 96-well plate (BD Falcon) at a density of 8000 cells/well, and treated with cis- or trans-gnetin H for 24 hours. Apoptosis was assessed using Annexin V/7-AAD double staining as described (Bai et al., Cancer Sci. 2010; 101(2):488-493). Cells were analyzed on a Guava Flow Cytometer (Millipore) using InCyte software and the data was exported to FlowJo software for image display.

[3] = system: p65 (RelA) nuclear translocation in THP-1 cells; test: Indirect immunofluorescence for NF-κB nuclear translocation; format: cell-based, human; settings: pretreated 1 h, LPS 30 min; Bay 11-7082 10 μM
Description: as §1
Differentiated THP-1 cells were pretreated with 50 μM of cis-gnetin H, trans-gnetin H, or 10 μM of Bay 11-7082 for 1 h and stimulated with 1 μg/ml of LPS for 30 min. Bay 11-7082 is a compound that inhibits IKK α/β and IκB α phosphorylation and was used as a positive control (Juliana et al., 2010, J. Biol. Chem., 285:9792-802). Treated cells were fixed, permeabilized, blocked, and stained with NF-κB, p65 primary antibody, Dylight 488 conjugated secondary antibody, and Hoechst 33342 dye, sequentially. The Hoechst and DyLight fluorophores detect changes in nuclear morphology (blue fluorescence) and NF-κB distribution (green fluorescence) respectively. Nuclear Translocation Bioapplication software on the Arrayscan VTI reader was used for image acquisition and analysis. For each well, at least 400 cells were automatically acquired and analyzed. The translocation index was calculated by measuring the average intensity difference of NF-icB between the identified cytoplasmic region and nuclear region.

[4] = system: U2OS cells (human osteosarcoma); test: Inhibition of cell proliferation, AlamarBlue fluorescent assay, U2OS; format: cell-based; settings: 48 hours, cancer cell line
Description: The cancer cell lines used in this study included human lung carcinoma (A549), human breast carcinoma (BT20 and MCF-7) and human osteosarcoma (U2OS), with the normal cell lines human peripheral lung epithelial cells (HPL1A) and human mammary epithelial cells (HMEC) serving as controls. A549, BT20, MCF-7, U2OS and HMEC cells were purchased from American Type Culture Collection (ATCC, USA), and HPL1A cells were obtained from Nagoya University, Japan. A549 and BT20 were grown in RPMI-1640 (Sigma), MCF-7 was grown in Dulbecco's Modified Eagle Medium (DMEM) (Sigma) supplemented with 0.01 mg/ml human recombinant insulin (Sigma), U2OS and HMEC were grown in McCoy's 5A (ATCC), and HPL1A was grown in DMEM/F-12K (Sigma). The mediums were supplemented with 10% Fetal Bovine Serum (FBS) (Gibco), 1% penicillin and streptomycin and incubated in a humidified atmosphere with 5% CO2 at 37° C.
The proliferation inhibition potential of cis- and trans-gnetin H was determined by a fluorescence dye staining method. Cells were seeded in a 96-well tissue culture-treated plate (BD Falcon) at a density of 4000 cells/well, and treated with cis- or trans-gnetin H for 48 hours. AlamarBlue dye (Invitrogen) was used to assess the viability of cells according to the manufacturer's instructions; the fluorescent intensity was read on a SpectraMax M2e microplate reader (Molecular Devices Inc.). […]

[5] = system: phosphorylated p65 (Ser536) in LPS-stimulated THP-1 cells; test: Western blot, p65 phosphorylation; format: cell-based, human
Description: as §1, §2

Row | SMILES | IKK β phosphorylation [1] | apoptosis induction in BT20 [2] | p65 nuclear translocation [3] | IC50 [4] [µM] | p65 phosphorylation ([5]; only at the highest concentration, 50 μM) | p65 phosphorylation ([5]; both 15 and 30 μM)
1 | Oc1ccc(/C=C\c2c3c(cc4c2[C@H](c2cc(O)cc(O)c2)[C@@H](c2ccc(O)cc2)O4)O[C@H](c2ccc(O)cc2)[C@H]3c2cc(O)cc(O)c2)cc1 [cis-gnetin H] | significantly inhibited | induce apoptosis | inhibited the p65 nuclear translocation | 9.32 | significantly inhibited | –
2 | Oc1ccc(/C=C/c2c3c(cc4c2[C@H](c2cc(O)cc(O)c2)[C@@H](c2ccc(O)cc2)O4)O[C@H](c2ccc(O)cc2)[C@H]3c2cc(O)cc(O)c2)cc1 [trans-gnetin H] | significantly inhibited | induce apoptosis | inhibited the p65 nuclear translocation | 3.1 | – | significantly inhibited
